Data from patent US8247211B2, “Glycopeptide antibiotics” (American Cyanamid Company, priority 2001, dated 2012).
Converted amounts (≈) assume the structure as drawn.

Legend:
Test in all cases: In vitro antibacterial evaluation: minimum inhibitory concentration (MIC), broth dilution method
Format in all cases: cell-based
Details in all cases: 18 hours at 35° C.
[1] = test system: Enterococcus sp.
Experimental: (§1) The minimum inhibitory concentration (MIC), the lowest concentration of the antibiotic which inhibits growth of the test organism, is determined by the broth dilution method using Muller-Hinton II […] (Baltimore Biological Laboratories) following the recommendations of the National Committee for Clinical Laboratory Standards [Methods for dilution antimicrobial susceptibility tests for bacteria that grow aerobically, approved standard M7-A2, National Committee for Clinical Laboratory Standards, Villanova, Pa].
(§2) An inoculum level of 5×10^5 CFU/mL, and a range of antibiotic concentrations (64-0.06 μg/mL) is used. […] The test organisms include a spectrum of Gram-positive bacteria comprised of Staphylococcus sp., Streptococcus sp. and Enterococcus sp. These organisms include recent clinical isolates that are resistant to methicillin, penicillin and/or vancomycin.

[2] = test system: Escherichia coli
Experimental: as §1, §2

[3] = test system: Staphylococcus sp.
Experimental: as §1, §2

[4] = test system: Streptococcus sp.
Experimental: as §1, §2

[5] = broth dilution, inoculum 5×10^5 CFU/mL

## CC(c1ccccc1)C1NC(=O)CNC(=O)C(CO)NC(=O)C(C(O)C2CNC(=N)N2C2OC(CO)C(O)C(O)C2O)NC(=O)C(C(O)C2CNC(=N)N2)NC(=O)C(Cc2ccc(OC3OC(CO)C(OC4OC(COCc5ccc(Oc6ccccc6)cc5)C(O)C(O)C4O)C(O)C3O)cc2)NC1=O (stereo not drawn) [Example 236, Cyclo[glycyl-β-methylphenylalanyl-O-[4-O-[6-O-(4-phenoxybenzyl)hexopyranosyl]hexopyranosyl]tyrosyl-3-(2-iminoimidazolidin-4-yl)seryl-3-(3-hexopyranosyl-2-iminoimidazolidin-4-yl)serylseryl]]
[1]; Enterococcus avium (GC 4558)
  MIC Enterococcus avium (GC 4558): 2 µg/mL (≈ 1.35 µM)
[1]; Enterococcus faecalis (ATCC 29212)
  MIC Enterococcus faecalis (ATCC 29212): 4 µg/mL (≈ 2.71 µM)
[1]; Enterococcus faecalis (GC 2242)
  MIC Enterococcus faecalis (GC 2242): 4 µg/mL (≈ 2.71 µM)
[1]; Enterococcus faecalis (GC 2691)
  MIC Enterococcus faecalis (GC 2691): 2 µg/mL (≈ 1.35 µM)
[1]; Enterococcus faecalis (GC 3059)
  MIC Enterococcus faecalis (GC 3059): 2 µg/mL (≈ 1.35 µM)
[1]; Enterococcus faecalis (GC 4552)
  MIC Enterococcus faecalis (GC 4552): 4 µg/mL (≈ 2.71 µM)
[1]; Enterococcus faecalis (GC 4553)
  MIC Enterococcus faecalis (GC 4553): 4 µg/mL (≈ 2.71 µM)
[1]; Enterococcus faecalis (GC 4554)
  MIC Enterococcus faecalis (GC 4554): 4 µg/mL (≈ 2.71 µM)
[1]; Enterococcus faecalis (GC 6189)
  MIC Enterococcus faecalis (GC 6189): 2 µg/mL (≈ 1.35 µM)
[1]; Enterococcus faecium (GC 2243)
  MIC Enterococcus faecium (GC 2243): 4 µg/mL (≈ 2.71 µM)
[1]; Enterococcus faecium (GC 4556)
  MIC Enterococcus faecium (GC 4556): 4 µg/mL (≈ 2.71 µM)
[1]; Enterococcus faecium (GC 4557)
  MIC Enterococcus faecium (GC 4557): 2 µg/mL (≈ 1.35 µM)
[1]; [5]
  MIC Enterococcus faecalis (GC 2242): 4 µg/mL (≈ 2.71 µM)
  MIC Enterococcus faecalis (GC 2691): 2 µg/mL (≈ 1.35 µM)
  MIC Enterococcus faecalis (GC 3059): 2 µg/mL (≈ 1.35 µM)
[2]; Escherichia coli (ATCC 25922)
  MIC Escherichia coli (ATCC 25922): >64 µg/mL
[2]; Escherichia coli (GC 4559)
  MIC Escherichia coli (GC 4559): >64 µg/mL
[2]; Escherichia coli (GC 4560)
  MIC Escherichia coli (GC 4560): 1 µg/mL (≈ 0.677 µM)
[3]; Coagulase Negative Staphylococcus (GC 4547)
  MIC Coagulase Negative Staphylococcus (GC 4547): 2 µg/mL (≈ 1.35 µM)
[3]; Coagulase Negative Staphylococcus (GC 4548)
  MIC Coagulase Negative Staphylococcus (GC 4548): 0.5 µg/mL (≈ 0.338 µM)
[3]; Coagulase Negative Staphylococcus (GC 4549)
  MIC Coagulase Negative Staphylococcus (GC 4549): 0.5 µg/mL (≈ 0.338 µM)
[3]; Coagulase Negative Staphylococcus (GC 4551)
  MIC Coagulase Negative Staphylococcus (GC 4551): 2 µg/mL (≈ 1.35 µM)
[3]; Coagulase Negative Staphylococcus (GC 6257)
  MIC Coagulase Negative Staphylococcus (GC 6257): 1 µg/mL (≈ 0.677 µM)
[3]; Staphylococcus aureus (ATCC 29213)
  MIC Staphylococcus aureus (ATCC 29213): 2 µg/mL (≈ 1.35 µM)
[3]; Staphylococcus aureus (GC 1131)
  MIC Staphylococcus aureus (GC 1131): 2 µg/mL (≈ 1.35 µM)
[3]; Staphylococcus aureus (GC 3051)
  MIC Staphylococcus aureus (GC 3051): 2 µg/mL (≈ 1.35 µM)
[3]; Staphylococcus aureus (GC 3053)
  MIC Staphylococcus aureus (GC 3053): 2 µg/mL (≈ 1.35 µM)
[3]; Staphylococcus aureus (GC 4541)
  MIC Staphylococcus aureus (GC 4541): 2 µg/mL (≈ 1.35 µM)
[3]; Staphylococcus aureus (GC 4542)
  MIC Staphylococcus aureus (GC 4542): 4 µg/mL (≈ 2.71 µM)
[3]; Staphylococcus aureus (GC 4544)
  MIC Staphylococcus aureus (GC 4544): 2 µg/mL (≈ 1.35 µM)
[3]; Staphylococcus aureus (GC 4545)
  MIC Staphylococcus aureus (GC 4545): 2 µg/mL (≈ 1.35 µM)
[3]; Staphylococcus aureus-SMITH (GC 4543)
  MIC Staphylococcus aureus-SMITH (GC 4543): 2 µg/mL (≈ 1.35 µM)
[3]; Staphylococcus haemolyticus (GC 4546)
  MIC Staphylococcus haemolyticus (GC 4546): 2 µg/mL (≈ 1.35 µM)
[4]; Streptococcus agalactiae (GC 4564)
  MIC Streptococcus agalactiae (GC 4564): 0.12 µg/mL (≈ 0.0812 µM)
[4]; Streptococcus pneumoniae (ATCC 6301)
  MIC Streptococcus pneumoniae (ATCC 6301): <0.06 µg/mL
[4]; Streptococcus pneumoniae (GC 1894)
  MIC Streptococcus pneumoniae (GC 1894): <0.06 µg/mL
[4]; Streptococcus pneumoniae (GC 4565)
  MIC Streptococcus pneumoniae (GC 4565): <0.06 µg/mL
[4]; Streptococcus pyogenes (GC 4563)
  MIC Streptococcus pyogenes (GC 4563): <0.06 µg/mL
[4]; [5]
  MIC Streptococcus agalactiae (GC 4564): 0.12 µg/mL (≈ 0.0812 µM)
  MIC Streptococcus pneumoniae (ATCC 6301): <0.06 µg/mL
  MIC Streptococcus pneumoniae (GC 1894): <0.06 µg/mL
  MIC Streptococcus pneumoniae (GC 4565): <0.06 µg/mL
  MIC Streptococcus pyogenes (GC 4563): <0.06 µg/mL
